Source: ChEMBL document CHEMBL1201862, “PubChem BioAssay data set” (2004)
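How tested: cells in 96-well plates exposed to compound for 48 hours at five concentrations. Here, GI50 denotes the concentration required for 50% inhibition of growth.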 Calls of active or inactive are those of the source. No stated cut-off is given here; in the data, active = GI50 up to about 1.1 µM and inactive = higher.

Key:
Experiment in all cases: NCI tumour cell line growth inhibition, 48 h
[1] = test system: 786-0
[2] = test system: A498
[3] = test system: A549
[4] = test system: ACHN
[5] = test system: CAKI-1
[6] = test system: CCRF-CEM
[7] = test system: COLO 205
[8] = test system: DLD-1
[9] = test system: DMS-114
[10] = test system: DMS-273
[11] = test system: EKVX
[12] = test system: HCC 2998
[13] = test system: HCT-116
[14] = test system: HCT-15
[15] = test system: HL-60
[16] = test system: HOP-18
[17] = test system: HOP-62
[18] = test system: HOP-92
[19] = test system: HT-29
[20] = test system: IGROV-1
[21] = test system: K562
[22] = test system: KM-20L2
[23] = test system: KM12
[24] = test system: LOX IMVI
[25] = test system: LXFL 529
[26] = test system: M14
[27] = test system: M19-MEL
[28] = test system: MOLT-4
[29] = test system: Malme-3M
[30] = test system: NCI-H226
[31] = test system: NCI-H23
[32] = test system: NCI-H460
[33] = test system: NCI-H522
[34] = test system: OVCAR-3
[35] = test system: OVCAR-4
[36] = test system: OVCAR-5
[37] = test system: OVCAR-8
[38] = test system: RPMI-8226
[39] = test system: RXF 393
[40] = test system: RXF 631
[41] = test system: SF-268
[42] = test system: SF-295
[43] = test system: SF-539
[44] = test system: SK-MEL-28
[45] = test system: SK-MEL-2
[46] = test system: SK-MEL-5
[47] = test system: SK-OV-3
[48] = test system: SN12C
[49] = test system: SNB-19
[50] = test system: SNB-75
[51] = test system: SNB-78
[52] = test system: SR
[53] = test system: SW-620
[54] = test system: TK-10
[55] = test system: U-251
[56] = test system: UACC-257
[57] = test system: UACC-62
[58] = test system: UO-31

`NC(=S)N1N=C2c3ccccc3CC[C@@H]2[C@@H]1c1ccccc1` was tested, and the GI50 [1] was 6.89 µM (inactive), the GI50 [2] was 13.2 µM (inactive) and the GI50 [3] was 8.59 µM (inactive). For the same compound, the GI50 [4] was 7.94 µM (inactive), the GI50 [5] was 5.01 µM (inactive) and the GI50 [6] was 3.24 µM (inactive). For the same compound, the GI50 [7] was 3.72 µM (inactive), the GI50 [8] was 6.5 µM (inactive) and the GI50 [9] was 2.45 µM (inactive). For the same compound, the GI50 [10] was 2.19 µM (inactive), the GI50 [11] was 16.3 µM (inactive) and the GI50 [12] was 6.78 µM (inactive). For the same compound, the GI50 [13] was 5.48 µM (inactive), the GI50 [14] was 3.33 µM and the GI50 [15] was 2.86 µM (inactive). For the same compound, the GI50 [16] was 20.8 µM (inactive), the GI50 [17] was 5.43 µM (inactive) and the GI50 [18] was 11.2 µM (inactive). For the same compound, the GI50 [19] was 3.15 µM (inactive), the GI50 [20] was 12.6 µM (inactive) and the GI50 [21] was 2 µM (inactive). The GI50 [22] was 4.22 µM (inactive), the GI50 [23] was 4.27 µM (inactive) and the GI50 [24] was 5.86 µM (inactive). The GI50 [25] was 8.18 µM (inactive), the GI50 [26] was 4.4 µM (inactive) and the GI50 [27] was 4.97 µM (inactive). For the same compound, the GI50 [28] was 4.05 µM (inactive), the GI50 [29] was 5.4 µM (inactive) and the GI50 [30] was 4.65 µM (inactive). For the same compound, the GI50 [31] was 4.68 µM (inactive), the GI50 [32] was 5.42 µM (inactive) and the GI50 [33] was 1.5 µM (inactive). The GI50 [34] was 2.92 µM (inactive), the GI50 [35] was 23.8 µM (inactive) and the GI50 [36] was 24.3 µM (inactive). The GI50 [37] was 9.75 µM (inactive), the GI50 [38] was 5.61 µM (inactive) and the GI50 [39] was 4.95 µM (inactive). For the same compound, the GI50 [40] was 7.85 µM (inactive), the GI50 [41] was 10.2 µM (inactive) and the GI50 [42] was 3.13 µM (inactive). The GI50 [43] was 4.88 µM (inactive), the GI50 [44] was 9.84 µM (inactive) and the GI50 [45] was 5.92 µM (inactive). For the same compound, the GI50 [46] was 3.82 µM (inactive), the GI50 [47] was 9.73 µM (inactive) and the GI50 [48] was 5.05 µM (inactive). The GI50 [49] was 5.77 µM (inactive), the GI50 [50] was 3.62 µM (inactive) and the GI50 [51] was 28.1 µM (inactive). For the same compound, the GI50 [52] was 1.47 µM (inactive), the GI50 [53] was 3.84 µM (inactive) and the GI50 [54] was 16.8 µM (inactive). The GI50 [55] was 3.98 µM (inactive), the GI50 [56] was 9.29 µM (inactive) and the GI50 [57] was 4.74 µM (inactive). For the same compound, the GI50 [58] was 14.2 µM (inactive).
